Test results reported in PMC6382835, “A critical evaluation of TRPA1-mediated locomotor behavior in zebrafish as a screening tool for novel anti-nociceptive drug discovery” (Scientific Reports, 2019).

Legend:
[1] = target: T1, mouse TRPA1 (mTRPA1) (Mus musculus, UniProt Q8BLA8); experiment: FLIPR calcium signaling assay in mTRPA1-transfected HEK293 cells; assay type: cell-based; details: for EC50: read-out: EC50 (potency in µM)
T1 construct: host or cells: HEK293 (ATCC CRL-1573), transient transfection
T1 sequence (Q8BLA8 whole entry): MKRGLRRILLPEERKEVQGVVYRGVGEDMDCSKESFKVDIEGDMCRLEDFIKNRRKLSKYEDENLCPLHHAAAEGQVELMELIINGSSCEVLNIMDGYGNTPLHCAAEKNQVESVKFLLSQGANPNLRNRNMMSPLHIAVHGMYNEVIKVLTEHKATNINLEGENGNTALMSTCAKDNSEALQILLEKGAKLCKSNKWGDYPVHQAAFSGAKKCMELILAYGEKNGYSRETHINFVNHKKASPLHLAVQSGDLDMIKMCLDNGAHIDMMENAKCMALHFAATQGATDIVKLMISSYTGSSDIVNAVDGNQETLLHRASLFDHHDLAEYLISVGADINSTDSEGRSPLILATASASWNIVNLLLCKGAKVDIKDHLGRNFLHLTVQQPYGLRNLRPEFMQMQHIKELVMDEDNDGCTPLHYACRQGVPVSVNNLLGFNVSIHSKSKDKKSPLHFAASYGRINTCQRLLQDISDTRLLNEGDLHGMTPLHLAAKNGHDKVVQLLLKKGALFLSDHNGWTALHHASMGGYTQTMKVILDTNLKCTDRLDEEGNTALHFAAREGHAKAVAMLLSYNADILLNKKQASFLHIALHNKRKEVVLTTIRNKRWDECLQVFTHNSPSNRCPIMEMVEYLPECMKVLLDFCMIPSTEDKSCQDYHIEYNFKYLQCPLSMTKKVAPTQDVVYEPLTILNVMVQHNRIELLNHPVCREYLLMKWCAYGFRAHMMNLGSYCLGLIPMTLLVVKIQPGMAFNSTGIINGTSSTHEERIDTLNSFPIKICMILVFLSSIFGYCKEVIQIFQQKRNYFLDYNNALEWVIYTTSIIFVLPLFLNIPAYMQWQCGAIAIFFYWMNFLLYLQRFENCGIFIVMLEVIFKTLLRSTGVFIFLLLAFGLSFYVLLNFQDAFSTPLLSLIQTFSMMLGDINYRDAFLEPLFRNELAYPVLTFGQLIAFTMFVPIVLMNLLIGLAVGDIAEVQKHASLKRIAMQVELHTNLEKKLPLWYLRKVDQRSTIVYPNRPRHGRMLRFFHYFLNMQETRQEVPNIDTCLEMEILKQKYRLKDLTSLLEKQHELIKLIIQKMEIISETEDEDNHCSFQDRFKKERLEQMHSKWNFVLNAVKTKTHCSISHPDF
Protocol: HEK293 cells (#CRL-1573, ATCC, VA, USA) were cultured in DMEM media (#11995-065, Sigma-Aldrich, MO, USA) with 10% Fetal Bovine Serum (#F0926-500ML, Thermo Fisher, MA, USA). The cells were maintained in a 37 °C incubator with consistent 5% CO2. They were seeded in a clear 6 well flat bottom cell culture plates (#07-200-83, Corning ®, Thermo Fisher) with 500,000 cells/2 ml/well for transfection, in serum-free Opti-MEM (#31985070, Gibco®, Thermo Fisher). These cells were transfected with pcDNA3.1-mTRPA1 (#MR227099, OriGene, MD, USA), pcDNA3.1-zTRPA1a, or pcDNA3.1-zTRPA1b (a gift from Dr. David Prober) using X-tremeGENE^TM 9 (#6365809001, Sigma-Aldrich). After 24 hours, the transfected cells were dislodged with trypsin, resuspended in Opti-MEM, and seeded 25,000 cells/25 µl/well in 384-well black polystyrene microplates (#82051-296, VWR, PA, USA) for testing calcium signaling the following day. Experiments were carried out with the approval of the Institutional Biohazard Committee (#13-013-16).
Twenty-five µl calcium sensitive Fluorescent Imaging Plate Reader (FLIPR) Calcium 6 assay dye (#R8190, Molecular Devices, CA, USA) was added to each well of a 384-well plate containing HEK293 cells transiently expressing mTRPA1, zTRPA1a, and zTRPA1b, respectively. The cells were incubated for an hour prior to the recording of intracellular calcium levels in a FlexStation3 Multi-Mode Microplate Reader (#R8190, Molecular Devices) as previously described. All compounds were diluted in calcium buffer made with 1x HBSS (#14025-092, Thermo Fisher), 20 mM HEPES (#15630-080, Thermo Fisher), and 2.5 mM Probenecid (#P8761, Sigma-Aldrich). For agonist studies, ASP7663 (#5178, Tocris, Bristol, UK) was diluted in 1% DMSO-containing calcium buffer at desired concentrations and was added during the recording. The TRPA1 antagonists HC-030031 (#2896, Tocris), TCS-5861528 (#3938, Tocris), and A-967079 (#4716, Tocris) were diluted in calcium buffer, and 5 µl of 10x solutions were added 10 minutes prior to the recording. The same amount of DMSO (1%) was added to all control groups to maintain similar DMSO levels with the experimental groups. During the assay, the cells were challenged by a 5x ASP7663 solution or 1% DMSO solution at the 20 seconds time point, and both solutions were diluted in calcium buffer. Relative fluorescence units (RFU) were measured for 120 seconds period by the Flexstation. Area under the curve (AUC) was further evaluated from individual calcium influx data (Supplemental Figs 2 and 4) to plot does-response curve of antagonists. For each specific antagonist concentration we plotted Log(dose ratio-1) against the antagonist concentration in a Schild plot. The dose ratio (A’/A) equals the EC50 of the agonist ([…]) in the presence of a concentration of the antagonist (A’) divided by the EC50 of the agonist in the absence of antagonist (A). The x-intercept of the Schild plot was used to identify the antagonist-receptor affinity (pA2).
All data are presented as means ± standard error of the mean (SEM). For our in vitro statistical analysis, AUC of calcium influx (RFU) was measured to plot dose-response curves, which were further analyzed by nonlinear regression analysis. Mean RFU of the first 10 seconds was used as a baseline of the AUC. EC50 values of the dose-response curves were further used to plot Schild curves, and the curves were analyzed with linear regression analysis. For the mice von Frey test, mechanical thresholds were analyzed with two-way ANOVA followed by a Bonferonni test for multiple comparison analysis. For the zebrafish behavior test, the data from the first five seconds following drug administration were excluded, as zebrafish displacement during that period was highly influenced by liquid dispensing. AUC of all curves were measured and analyzed by one-way ANOVA. The post-hoc analysis was conducted with the Tukey’s or Dunnett’s multiple comparisons unless it stated otherwise. […]

[2] = system: 5 dpf zebrafish larvae; experiment: Zebrafish locomotor tracking assay; assay type: in vivo, Zebrafish (Danio rerio); details: for swimming (locomotor) behavior: 100 μM agonist, 5 dpf larvae, 300 s tracking
Protocol: Wild-type zebrafish of the AB line were utilized for all behavioral experiments. Adult and larval zebrafish were maintained on a 14 hr/10 hr light/dark cycle. They were maintained and bred using standard procedure https://zfin.org/zf_info/zfbook/zfbk.html. Larval zebrafish were reared until 5 days post-fertilization (dpf) in E3 media https://zfin.org/zf_info/zfbook/chapt1/1.3.html in an incubator at 28 °C. E3 media was changed daily, and healthy embryos were kept for experiments.
In the behavioral experiments, one 5 dpf zebrafish was placed in 250 μL of fish media per well of a 96-well plate (UNIPLATE Collection and Analysis Microplate, 96-Well 7701-1651). For each experimental condition, a group of 8 larvae (1 column) was used. Larvae were acclimated to the wells for 300 seconds after which an 8-channel pipette was used to simultaneously dispense 250 μL of 2x concentration of the TRPA1 agonist ASP7663 in fish media into each well. Locomotor activity was subsequently tracked and quantified (as distance travelled) for 300 additional seconds utilizing the Zebrabox system from ViewPoint Behavior Technology (Civrieux, France). For TRPA1 antagonist testing, larvae in the 96-well plate were pretreated with 1x concentration of antagonist in 250 μL E3 media for 20 minutes. Then, 250 μL of 2x TRPA1 agonist was added directly to this solution, and the resulting behavior was recorded as described above.
All data are presented as means ± standard error of the mean (SEM). For our in vitro statistical analysis, AUC of calcium influx (RFU) was measured to plot dose-response curves, which were further analyzed by nonlinear regression analysis. Mean RFU of the first 10 seconds was used as a baseline of the AUC. EC50 values of the dose-response curves were further used to plot Schild curves, and the curves were analyzed with linear regression analysis. For the mice von Frey test, mechanical thresholds were analyzed with two-way ANOVA followed by a Bonferonni test for multiple comparison analysis. For the zebrafish behavior test, the data from the first five seconds following drug administration were excluded, as zebrafish displacement during that period was highly influenced by liquid dispensing. AUC of all curves were measured and analyzed by one-way ANOVA. The post-hoc analysis was conducted with the Tukey’s or Dunnett’s multiple comparisons unless it stated otherwise. A value of y = 0 in the graph was used as a baseline of the AUC. For our time-course average displacement graph, we used 2nd degree polynomial smoothing for a better representation; however, we used data before smoothing for all statistical analysis and quantification. All in vitro and in vivo data were evaluated using GraphPad Prism 7 (GraphPad Software, La Jolla, CA) unless it stated otherwise.

[3] = agonist calcium influx, AUC of RFU, mTRPA1-transfected HEK293
[4] = Schild plot against ASP7663-induced calcium influx, mTRPA1

CC(C)CN1C(=O)/C(=C/C(=O)O)c2cccc(F)c21 [ASP7663]
persistence of calcium influx ([1]; 316 µM, up to 120 seconds, compared to AITC): more persistent calcium influx compared to AITC
pEC50 [1, 3]: 5.16 ± 0.16
EC50 [1, 3]: 6.8 µM
potency weaker than previously reported (fold) ([1]; versus similar FLIPR-based calcium assay): ~ 10 fold
swimming (locomotor) behavior [2]: induced a slower and more sustained swimming behavior
locomotor activity ([2]; ASP7663 higher concentration 31.6 and 100 μM): hyperlocomotor activity
locomotor activity ([2]; ASP7663 low doses 3.16 and 10 μM): induced hypolocomotion

CC(C)c1ccc(NC(=O)Cn2cnc3c2c(=O)n(C)c(=O)n3C)cc1 [HC-030031]
pA2 [1, 4]: 5.65 ± 0.2
pA2 expressed in µM [1, 4]: 2.2 µM
swimming behavior with antagonist alone ([2]; 10 μM HC-030031 alone vs E3): increased swimming behavior over baseline
inhibition of ASP7663 (100 μM)-mediated nocifensive locomotor behavior ([2]; 10 μM antagonist pre-incubation 20 minutes): inhibited the nocifensive locomotor behavior

C=CCN=C=S [AITC, allyl isothiocyanate]
EC50 [1, 3]: 5.8 µM
swimming (locomotor) behavior [2]: elicited an acute and rapid swimming behavior immediately upon treatment
